The values below come from patent publication US7919465B2, “Peptide mimotopes that inhibits interaction between a platelet receptor and a platelet receptor ligand” (priority 2006, dated 2011).

One test addresses T1, GPIb-vWf interaction (Homo sapiens, UniProt P07359).
T1 construct: Platelet rich plasma (PRP) was prepared from whole blood by centrifugation; endogenous in cells
Kind of test: Flow cytometry inhibition of vWf binding to ristocetin-activated platelets in PRP. The format is cell-based. As for the experimental part:
(§1) In order to prepare human platelets for testing, as approved by Canadian Blood Services' Ethics Board, samples of whole blood were drawn from healthy, consenting donors into 2.7-4.0 mL citrated tubes (BD, USA). Platelet rich plasma (PRP) was prepared from whole blood by centrifugation in a Beckman (CS-6R) bench-top centrifuge (r=203.57 mm, Beckman Coulter, USA) 164×g for 15 minutes. PRP from a number of unrelated donors were evaluated on an Adiva 120 Hematology Analyzer (Bayer, Canada) and standardized to a concentration of 300×10^9 platelets/L in HEPES buffered saline (HBS, 10 mM HEPES, 150 mM NaCl, pH 7.4).
Thereafter the samples were diluted and fixed with 1.0 mL 0.2% formolsaline (0.2% formaldehyde, 150 mM NaCl, pH 7.20) before analysis on a FACS Canto flow cytometer (BD, USA).
The effect of native HPG, free peptides, and peptide-conjugated HPG on activated platelets using modifications of the above assay systems was also examined. Platelets were treated with either 5 μL 4.2 mg/mL ristocetin (Chrono-Log, USA) or 100 U thrombin (T6884, Sigma-Aldrich, Canada) with 5 μL GPRP fibrin inhibitor (G5779, Sigma-Aldrich, Canada) dissolved in HBS. […] Controls included incubation with mouse IgG-FITC/IgG-PE (Beckman-Coulter, Canada) of the same isotype, and/or omitting the conjugate.

Test [1] relates to CD62/P-selectin on platelet surfaces. Nature of the test: Flow cytometry of surface CD62 expression on platelets. The test is classed as cell-based, human. The settings on record: for Surface CD62 Expression, Activated Platelets: thrombin-activated platelets. Here is the method: as §1
(§2) 40 μL aliquots of HBS were mixed with 5 μL PRP and 5 μL of the material to be tested: 500 kDa native HPG; free peptides; or peptide-conjugated HPG at 1.0×10^−3 M to 1.0×10^−9 M. After 40 minutes of incubation at ambient temperature, 5 μL 0.01 mg/mL FITC-conjugated polyclonal sheep anti-human vWf IgG (Abcam, USA) or 5 μL of 2 mg/mL PE-conjugated monoclonal mouse anti-human CD62 IgG (Beckman-Coulter, Canada) was added and incubation was continued in the dark for 30 min. Thereafter the samples were diluted and fixed with 1.0 mL 0.2% formolsaline (0.2% formaldehyde, 150 mM NaCl, pH 7.20) before analysis on a FACS Canto flow cytometer (BD, USA).
The effect of native HPG, free peptides, and peptide-conjugated HPG on activated platelets using modifications of the above assay systems was also examined. Platelets were treated with either 5 μL 4.2 mg/mL ristocetin (Chrono-Log, USA) or 100 U thrombin (T6884, Sigma-Aldrich, Canada) with 5 μL GPRP fibrin inhibitor (G5779, Sigma-Aldrich, Canada) dissolved in HBS. This was done to determine whether the peptides and the peptide-conjugates can mitigate vWf and thrombin mediated platelet effects. Controls included incubation with mouse IgG-FITC/IgG-PE (Beckman-Coulter, Canada) of the same isotype, and/or omitting the conjugate. As a result, native HPG, free peptides, and peptide-conjugated HPG neither did they increase vWf binding to resting platelets (Table 5) or they could trigger platelet activation. […]
In general terms: In flow cytometry, cells or beads pass a laser one at a time.

Test [2] has as its system vWf binding to resting platelets. Nature of the test: Flow cytometry of vWf binding to resting platelets. The format is cell-based, human. As for the experimental part:
as §1, §2
(§3) The effect of native HPG, free peptides, and peptide-conjugated HPG on activated platelets using modifications of the above assay systems was also examined. Platelets were treated with either 5 μL 4.2 mg/mL ristocetin (Chrono-Log, USA) or 100 U thrombin (T6884, Sigma-Aldrich, Canada) with 5 μL GPRP fibrin inhibitor (G5779, Sigma-Aldrich, Canada) dissolved in HBS. This was done to determine whether the peptides and the peptide-conjugates can mitigate vWf and thrombin mediated platelet effects. Controls included incubation with mouse IgG-FITC/IgG-PE (Beckman-Coulter, Canada) of the same isotype, and/or omitting the conjugate. As a result, native HPG, free peptides, and peptide-conjugated HPG neither did they increase vWf binding to resting platelets (Table 5) or they could trigger platelet activation.

The target in a further test is purified vWf (Homo sapiens, UniProt P04275). Nature of the test: Random D-peptide array on cellulose membrane probed with purified vWf. The settings on record: detected by HRP anti-human-vWf IgG. The format is binding. An excerpt:
Random D-amino acid peptides (15 mer) were synthesized and probed with vWf to detect random sequences capable of binding vWf.
Random peptide arrays of 1120 peptides made of D-amino acids were synthesized on a cellulose membrane using an AutoSpot ASP 222 peptide synthesizer (ABiMED, Langenfeld, Germany). Resulting replicate libraries of 15-mer sequences were probed for vWf binding function by exposing the membranes to purified vWf after blocking with skim milk to prevent non-specific binding of horseradish peroxidase labelled goat anti-human-vWf IgG. The chemiluminescent substrate from the Amersham Pharmacia ECL kit detected positive spots that were recorded on photographic film. Negative controls consisted of probing the membranes with the antibodies without prior exposure of the membrane to purified vWf.
(§4) Peptides on random 15-mer peptide arrays that were built of D-amino acids were selected on the basis of their ability to bind to vWf. Only four positive sequences were identified: D-pep1—[…] (SEQ ID NO:4); D-pep2—[…] (SEQ ID NO:5); D-pep3—[…] (SEQ ID NO:6); and D-pep4—[…] (SEQ ID NO:7). D-pep2 (SEQ ID NO:5), D-pep3 (SEQ ID NO:6) and D-pep4 (SEQ ID NO:7) were synthesized for laboratory experimentation. D-pep3 (SEQ ID NO:6), 10 mg, was synthesized by UBC's Peptide Proteomic Centre and was solubilized in Hepes-saline buffer, pH 7.4 and used at 0.1-0.5 mg/mL. Fresh washed platelets ([…]) in Hepes buffer were added and agglutination was initiated by 1.25 mg/mL ristocetin (Sigma). Agglutination times and levels were monitored both microscopically and on an aggregometer (ChronoLog) as described by the manufacturer.

The subject of the next test is platelets. Nature of the test: Aggregometry, % aggregation on activation. The format is cell-based, human. More on the design: concentration or dose not given beside the values. The settings on record: ristocetin activation. Here is the method: as §1, §3
The inhibition of platelet agglutination by vWf was observed both by light microscopy and lumiaggregometry (Table 5). No clumping was seen when resting platelets were incubated with free peptides, native HPG, or peptide-conjugated HPG.

Test [3] relates to GPIb-vWf-mediated platelet agglutination. Kind of test: Inhibition of ristocetin-mediated agglutination of washed platelets (microscopy, aggregometer). The test is classed as cell-based, human. The settings on record: for % agglutination (aggregometry): at 10 minutes, washed platelets, ristocetin. Here is the method: as §4
The mark [4] stands for this setting: inhibition of platelet-vWf binding, molar concentration of peptide or conjugate, read-out: Ic50.
Setting [5] is: expressed as peptide concentration.
Setting [6] is: inhibition of platelet-vWf binding, molar concentration of peptide or conjugate.

Like-named read-outs stand apart in the source and are kept apart here. Non-standard residues stand in square brackets, D forms with d. No end group written: not given here.

As for “L10: HPG 500 kDa conjugate with about 10 L-peptides per HPG molecule (CGGGGGGSHAYIGLKDR; also: conjugated to HPG 500 kDa, about 10 L-peptides per HPG molecule, site not given here)”, in the test with GPIb-vWf interaction, the “inhibition of vWf binding to platelets (in words)” value is “effective inhibitors”. Also, the IC50 with GPIb-vWf interaction (expressed as peptide concentration, read-out: Peptide Concentration at Ic50) came out at 67 µM. The IC50 with GPIb-vWf interaction (setting [4]) came to 6.7 µM. In test [1], the “Surface CD62 Expression, Resting Platelets” value is 17 ± 1 and the “Surface CD62 Expression, Activated Platelets” value is reported as 73 ± 5″. In test [2], the “vWf Binding, Resting Platelets” value is given as 22 ± 5′.
Turning to “VSRQNGKQYWAIKEG ([dV][dS][dR][dQ][dN]G[dK][dQ][dY][dW][dA][dI][dK][dE]G) [D-pep1]”, the “vWf binding on random 15-mer D-peptide array” value with purified vWf is on record as “positive”.
On to D-CGGGGGGRDKLGIYAHS [DR-pep], for which, at GPIb-vWf interaction (setting [5]), the “Peptide Concentration at Ic50 (M)” value is recorded as “No activity”. Besides, on GPIb-vWf interaction (setting [6]), the “Ic50 (M)” value was “No activity”. The “Aggregometry % Aggregation on Activation” value in the test with platelets was determined as 78 ± 5%. Besides, in test [1], the “Surface CD62 Expression, Resting Platelets” value came out at 27 ± 18 and the “Surface CD62 Expression, Activated Platelets” value is on record as 72 ± 3″. Also, in test [2], the “vWf Binding, Resting Platelets” value was 28 ± 3′.
With “LR100: HPG 500 kDa conjugate with about 100 L-retro peptides per HPG molecule (CGGGGGGRDKLGIYAHS; also: conjugated to HPG 500 kDa, about 100 L-retro peptides per HPG molecule, site not given here)”, the “inhibition of vWf binding to platelets (in words)” value with GPIb-vWf interaction is “effective inhibitors”. The IC50 with GPIb-vWf interaction (setting [4]) was determined as 0.49 µM. In addition, in test [1], the “Surface CD62 Expression, Resting Platelets” value is 18 ± 1 and the “Surface CD62 Expression, Activated Platelets” value was 73 ± 2″. For the same substance, the “vWf Binding, Resting Platelets” value in test [2] was 22 ± 2′.
For “bovine serum albumin [reference compound]”, the “% agglutination (aggregometry)” value in test [3] (0.5 mg/mL) amounted to 55%.
For “WQNEGTHVLSRCYEC ([dW][dQ][dN][dE]G[dT][dH][dV][dL][dS][dR][dC][dY][dE][dC]; cysteine pairing not given here) [D-pep2]”, in the test with purified vWf, the “vWf binding on random 15-mer D-peptide array” value was “positive”.
As for D-CGGGGGGRDKLGIYAHS [D-pep], the “Peptide Concentration at Ic50 (M)” value at GPIb-vWf interaction (setting [5]) is “No activity”. Further, the “Ic50 (M)” value on GPIb-vWf interaction (setting [6]) is on record as “No activity”. Also, the “Aggregometry % Aggregation on Activation” value in the test with platelets turned out to be 80 ± 5%. For the same substance, in test [1], the “Surface CD62 Expression, Resting Platelets” value came to 18 ± 2 and the “Surface CD62 Expression, Activated Platelets” value is recorded as 68 ± 10″. Further, the “vWf Binding, Resting Platelets” value in test [2] was 14 ± 8′.
For “LR10: HPG conjugate with 10 L-retro peptides per HPG molecule (CGGGGGGRDKLGIYAHS; also: conjugated to HPG, 10 L-retro peptides per HPG molecule, site not given here)”, the IC50 with GPIb-vWf interaction (setting [4]) was determined as 4.1 µM. In addition, in test [1], the “Surface CD62 Expression, Resting Platelets” value worked out at 17 ± 2 and the “Surface CD62 Expression, Activated Platelets” value is on record as 72 ± 4″. Further, in test [2], the “vWf Binding, Resting Platelets” value is listed as 24 ± 2′.
Turning to “DSCPRDWDNNFLFFE ([dD][dS][dC][dP][dR][dD][dW][dD][dN][dN][dF][dL][dF][dF][dE]) [D-pep4]”, the “vWf binding on random 15-mer D-peptide array” value in the test with purified vWf is reported as “positive”.
For “RSARMQVCWNAFKNR ([dR][dS][dA][dR][dM][dQ][dV][dC][dW][dN][dA][dF][dK][dN][dR]) [D-pep3]”, the “vWf binding on random 15-mer D-peptide array” value with purified vWf is given as “positive”. Moreover, the “% agglutination (aggregometry)” value in test [3] (0.1 mg/mL) was 69%; in test [3] (0.25 mg/mL) it was 28%; in test [3] (0.5 mg/mL), 13%. Besides, in test [3] (100-fold excess of peptide based on plasma vWf content, controls agglutinated within 5 minutes), the “ristocetin-mediated platelet agglutination by microscopy” value is “prevented visible agglutination at 20 minutes”.
Take “D100: HPG 500 kDa conjugate with about 100 D-peptides per HPG molecule ([dC]GGGGGG[dR][dD][dK][dL]G[dI][dY][dA][dH][dS]; also: coupled through vinyl sulfone to 500 kDa hyperbranched polyglycerol (HPG), about 100 peptides per HPG)”: the “Peptide Concentration at Ic50 (M)” value with GPIb-vWf interaction (setting [5]) is on record as “No activity”. In addition, the “Ic50 (M)” value with GPIb-vWf interaction (setting [6]) is “No activity”. Besides, the “Aggregometry % Aggregation on Activation” value in the test on platelets amounted to 73 ± 5%. Besides, in test [1], the “Surface CD62 Expression, Resting Platelets” value is reported as 18 ± 1 and the “Surface CD62 Expression, Activated Platelets” value is reported as 72 ± 1″. Moreover, the “vWf Binding, Resting Platelets” value in test [2] is listed as 26 ± 3′.
For “D10: HPG 500 kDa conjugate with about 10 D-peptides per HPG molecule ([dC]GGGGGG[dR][dD][dK][dL]G[dI][dY][dA][dH][dS]; also: coupled through vinyl sulfone to 500 kDa hyperbranched polyglycerol (HPG), about 10 peptides per HPG)”, the “Peptide Concentration at Ic50 (M)” value with GPIb-vWf interaction (setting [5]) was “No activity”. For the same substance, the “Ic50 (M)” value with GPIb-vWf interaction (setting [6]) is “No activity”. In addition, in the test on platelets, the “Aggregometry % Aggregation on Activation” value is given as 82 ± 5%. Moreover, in test [1], the “Surface CD62 Expression, Resting Platelets” value is given as 14 ± 7 and the “Surface CD62 Expression, Activated Platelets” value is listed as 70 ± 6″. Besides, the “vWf Binding, Resting Platelets” value in test [2] is listed as 24 ± 2′.
Take CGGGGGGRDKLGIYAHS [LR-pep]: on GPIb-vWf interaction, the IC50 came to 34 µM. Further, in the test with platelets, the “Aggregometry % Aggregation on Activation” value came out at 5 ± 5%. Moreover, in test [1], the “Surface CD62 Expression, Resting Platelets” value came out at 19 ± 2 and the “Surface CD62 Expression, Activated Platelets” value is reported as 70 ± 5″. Also, the “vWf Binding, Resting Platelets” value in test [2] was 25 ± 12′.
